Blank lines part the entries; values can stand above or below the molecule they belong to.
How the values were obtained:
[1] = test system: B16/F0 murine melanoma; assay: In-vivo tumor uptake and biodistribution; set-up: species or system C57B16 mice
Procedure: In-Vivo Tumor Uptake. To study the tumor uptake of ^99mTc-complexes, Tc-(Compound A-D and J-K), in vivo, biodistribution experiments at 1 h and 6 h after their administration were carried out in C57B16 mice with palpable B16 melanoma nodules. The biodistribution data including melanoma/nontumor (M/NT) ratios for selected organs are summarized in Table 4 and 5 as percentage injected dose per gram ([…]).
Animal Studies. All animal experiments were performed in compliance with the Principles of Laboratory Animal Care (NIH publication #85-23, revised 1985). Biodistribution studies and tumor-uptake measurements were performed in C57B16 mice (15 to 20 g) bearing the B16/F0 murine melanoma on the hind limb. See for example the studies described in, which are hereby incorporated by reference, Brandau, W.; Niehoff, T.; Pulawski, P.; Jonas, M.; Dutschka, K.; Sciuk, J.; Coenen, H. H.; Schober, O. Structure Distribution Relationship of Iodine-123-Iodobenzamides as Tracers for the Detection of Melanotic Melanoma. J. Nucl. Med. 1996, 37, 1865-1871; Mohanmmed, A.; Nicholl, C.; Titsch, U.; Eisenhut, M. Radiojodinated N-(Alkylaminoalkyl)-Substituted 4-Methoxy-, 4-Hydroxy-, and 4-Aminobenzamides: Biological Investigations for the Improvement of Melanoma-Imaging Agents. Nucl. Med. Biol. 1997, 24, 373-380; Titsch, U.; Mohammed, A.; Wagner, S.; Oberdorfer, F.; Eisenhut, M. Syntheses of N-(2-Diethylaminoethyl)benzamides Suitable for ^99mTc Complexation. J. Labelled Compd. Radiopharm. 1997, 40, 416-418; Dittmann, H.; Coenen, H. H.; Zölzer, F.; Dutschka, K.; Brandau, W.; Streffer, C. In Vitro Studies on the Cellular Uptake of Melanoma Imaging Aminoalkyl-iodobenzamide Derivatives (ABA). Nucl. Med. Biol. 1999, 26, 51-56; and Michelot, J. M.; Moreau, M. F. C.; Veyre, A. J.; Bonafous, J. F.; Bacin, F. J.; Madelmont, J. C.; Bussiere, F.; Souteyrand, P. A.; Mauclaire, L. P.; Chossat, F. M.; Papon, J. M.; Labarre, P. G.; Kauffmann, Ph.; Plagne, R. J. Phase II Scintigraphic Clinical Trial of Malignant Melanoma and Metastases with Iodine-123-N-(2-Diethylaminoethyl 4-Iodobenzamide). J. Nucl. Med. 1993, 34, 1260-1266. The tumor cells (B16/F0), obtained from ATCC, were washed with PBS and transplanted subcutaneously on the left hind flank by an inoculation of 0.5×10^6 cells (0.1 mL). Ten to 14 days later the animals developed palpable tumor nodules 3 to 5 mm in diameter. The biodistribution studies were carried out by tail-vein injection of 25 to 30 μCi (0.05 to 0.1 mL) of the ^99mTc-labeled complexes Tc-(Compound A-D, H, J, K or M). At the designated time after tail-vein administration, the animals were weighed and sacrificed. The organs and tumors were harvested and, when appropriate, blotted dry, weighed, and counted in a gamma counter along with technetium-99m standards of the injected dose. The results are expressed as % ID/g tissue (Table 4 and 5)

[2] = test system: B16/F0 murine melanoma cells; assay: In-vitro tumor-cell uptake, melanoma cells; type: cell-based; conditions: for % active: active part of in-vitro uptake, 37° C. vs 4° C.
Procedure: In-Vitro Tumor-Uptake Studies. Tumor-cell uptake studies in B16/F0 murine melanoma cells were performed with complexes Tc-(Compound A-D and H-M) at 37° C. and 4° C. Additionally, tumor-cell uptake of complex Tc-(Compound A) was investigated in another rapidly dividing MCF-7 human breast cancer cell line.
In-Vitro Cell Studies. Murine B16/F0 melanoma cells and human MCF-7 breast cancer cells were obtained from American Type Culture Collection, Manassas Va., (ATCC) and were grown in T-175 flasks in 14 mL Dulbecco's Modified Eagle Medium (D-MEM; Gibco, Life Technology, Gaithersburg, Md.) containing 4500 mg/L D-glucose, L-glutamine, and pyridoxine hydrochloride, 110 mg/L sodium pyruvate, 10% fetal bovine serum (FBS), 0.2% gentamicin and 0.5% penicillin-streptomycin solution. All cells were harvested from cell culture flasks by trypsinization with 1 mL trypsin-EDTA solution (0.25% trypsin, 1 mM EDTA×4 Na) (Gibco). After being washed with 12 mL Dulbecco's Phosphate-Buffered Saline (PBS) (Gibco), pH 7.2 (Ca^2+- and Mg^2+-free; g/L KCl, 0.20; KH2PO4, 0.20; NaCl, 8.00; Na2HPO4, 1.15), the cells were counted and resuspended in 8 mL S-MEM (Gibco) (Ca^2+ free, with reduced Mg^2+ content) and stored at 4° C. until use.
For in-vitro tumor-cell accumulation studies, 5×10^6 cells in polypropylene test tubes were incubated at 37° C. or 4° C., with intermittent agitation with 1-2 μCi (5 μL) ^99mTc-complex Tc-(Compound A-D) in a total volume of 350 μL S-MEM. At appropriate time intervals the tubes were vortexed and 8-μL samples were layered on 350 μL cold FBS in a 400-μL Eppendorf microcentrifuge tube. After centrifugation at 15,000 rpm for 2 min, the tubes were frozen in a dry ice-acetone bath. While still frozen, the bottom tip of the microcentrifuge tube containing the cell pellet was cut and placed in a counting tube. The remaining portion of the tube with the supernatant was placed in a separate counting tube. Both fractions were counted for radioactivity in a γ-counter (WALLAC, 1480 WIZARD 3″™). The amount of supernatant in the cell pellet was determined to be <1% in separate experiments. The percentage cell uptake of the ^99mTc-complex was calculated as: % uptake=[cpm(pellet)]/[cpm(pellet)+cpm(supernatant)]×100

SMILES: O=C1CN(CCN2CCCCC2)CC[S][99Tc]2(=[O])[S]CC[N]12 (stereo not shown) [^99mTc-Compound J]
biodistribution blood ([1]; 1 h post-injection): 2.26 % ID/g
biodistribution brain ([1]; 1 h post-injection): 0.52 % ID/g
biodistribution heart ([1]; 1 h post-injection): 0.91 % ID/g
biodistribution kidney ([1]; 1 h post-injection): 4.26 % ID/g
biodistribution liver ([1]; 1 h post-injection): 14.9 % ID/g
biodistribution lung ([1]; 1 h post-injection): 2.50 % ID/g
biodistribution melanoma ([1]; 1 h post-injection): 5.26 % ID/g
biodistribution muscle ([1]; 1 h post-injection): 0.42 % ID/g
biodistribution spleen ([1]; 1 h post-injection): 3.28 % ID/g
mel/blood ratio ([1]; 1 h post-injection): 2.3
mel/liver ratio ([1]; 1 h post-injection): <1
mel/lung ratio ([1]; 1 h post-injection): 2.1
mel/spleen ratio ([1]; 1 h post-injection): 1.6
biodistribution blood ([1]; 6 h post-injection): 0.20 % ID/g
biodistribution brain ([1]; 6 h post-injection): 0.05 % ID/g
biodistribution heart ([1]; 6 h post-injection): 0.26 % ID/g
biodistribution kidney ([1]; 6 h post-injection): 2.31 % ID/g
biodistribution liver ([1]; 6 h post-injection): 4.62 % ID/g
biodistribution lung ([1]; 6 h post-injection): 0.31 % ID/g
biodistribution melanoma ([1]; 6 h post-injection): 3.33 % ID/g
biodistribution muscle ([1]; 6 h post-injection): 0.15 % ID/g
biodistribution spleen ([1]; 6 h post-injection): 0.20 % ID/g
mel/blood ratio ([1]; 6 h post-injection): 16.7
mel/liver ratio ([1]; 6 h post-injection): <1
mel/lung ratio ([1]; 6 h post-injection): 10.7
mel/spleen ratio ([1]; 6 h post-injection): 16.7

In-vivo M/Blood ([1]; mouse, in vivo): 7.6
In-vivo M/Lung ([1]; mouse, in vivo): 5.4
In-vivo M/Spleen ([1]; mouse, in vivo): 4.2
SMILES: CCN(CC)CCN(CCSC(c1ccccc1)(c1ccccc1)c1ccccc1)CC(=O)NCCSC(c1ccccc1)(c1ccccc1)c1ccccc1 [Compound A, N-[(2-diethylaminoethyl)-N-(2-(2-(S-(triphenyl-methyl)thio)ethyl)amino)acetyl]-S-(triphenylmethyl)-2-aminoethane-thiol]
% Tumor uptake (In-vitro, 60 min) 4° C. [2]: 33 ± 2.4%
% Tumor uptake (In-vitro, 60 min) 37° C. [2]: 44 ± 1.6%
% active [2]: 25%

In-vivo M/Blood ([1]; mouse, in vivo): 7.6
In-vivo M/Lung ([1]; mouse, in vivo): 2.1
In-vivo M/Spleen ([1]; mouse, in vivo): 4.0
SMILES: CCCCN(CCCC)CCN(CCSC(c1ccccc1)(c1ccccc1)c1ccccc1)CC(=O)NCCSC(c1ccccc1)(c1ccccc1)c1ccccc1 [Compound B, N-[(2-dibutylaminoethyl)-N-(2-(2-(S-(triphenylmethyl)thio)ethyl)amino)-acetyl]-S-(triphenylmethyl)-2-aminoethanethiol]
% Tumor uptake (In-vitro, 60 min) 4° C. [2]: 16 ± 1.3%
% Tumor uptake (In-vitro, 60 min) 37° C. [2]: 8 ± 1.9%

In-vivo M/Blood ([1]; mouse, in vivo): 7.7
In-vivo M/Lung ([1]; mouse, in vivo): 2.4
In-vivo M/Spleen ([1]; mouse, in vivo): 3.0
SMILES: CCN(CC)CCCN(CCSC(c1ccccc1)(c1ccccc1)c1ccccc1)CC(=O)NCCSC(c1ccccc1)(c1ccccc1)c1ccccc1 [Compound C, N-[(3-diethylaminopropyl)-N-(2-(2-(S-(triphenylmethyl)thio)ethyl)amino)-acetyl]-S-(triphenylmethyl)-2-aminoethanethiol]
% Tumor uptake (In-vitro, 60 min) 4° C. [2]: 17 ± 1.5%
% Tumor uptake (In-vitro, 60 min) 37° C. [2]: 62 ± 0.8%
% active [2]: 73%

In-vivo M/Blood ([1]; mouse, in vivo): 4.3
In-vivo M/Lung ([1]; mouse, in vivo): 1.5
In-vivo M/Spleen ([1]; mouse, in vivo): 1.4
SMILES: CCCCN(CCCC)CCCN(CCSC(c1ccccc1)(c1ccccc1)c1ccccc1)CC(=O)NCCSC(c1ccccc1)(c1ccccc1)c1ccccc1 [Compound D, N-[(3-dibutylaminopropyl)-N-(2-(2-(S-(triphenylmethyl)thio)ethyl)amino)-acetyl]-S-(triphenylmethyl)-2-aminoethanethiol]
% Tumor uptake (In-vitro, 60 min) 4° C. [2]: 56 ± 2.7%
% Tumor uptake (In-vitro, 60 min) 37° C. [2]: 68 ± 2.3%
% active [2]: 18%

SMILES: CCN(CC)CCNC(=O)c1ccc(I)cc1 [IBZA, reference compound]
% Tumor uptake (In-vitro, 60 min) 4° C. [2]: 28 ± 1.4%
% Tumor uptake (In-vitro, 60 min) 37° C. [2]: 26 ± 1.4%
In-vivo Tumor uptake, Melanoma ([1]; 60 min): 5.5 % I.D./g
In-vivo M/Blood ([1]; melanoma/blood ratio, 60 min): 8
In-vivo M/Lung ([1]; melanoma/lung ratio, 60 min): <1
In-vivo M/Spleen ([1]; melanoma/spleen ratio, 60 min): 1

Source: patent US7321027B2, “Small technetium-99m and rhenium labeled agents and methods for imaging tumors” (President and Fellows of Harvard College, priority 2000, dated 2008)
